Data on 23 compounds can be found in patent US20090137572A1, “2-substituted-4-heteroaryl-pyrimidines useful for the treatment of proliferative disorders” (priority 2004, published 2009).

Common to all, as to assay type: biochemical
One test deals with T1, Aurora A kinase (Homo sapiens, UniProt O14965).
T1 construct: purchased
T1 sequence (O14965 1-403): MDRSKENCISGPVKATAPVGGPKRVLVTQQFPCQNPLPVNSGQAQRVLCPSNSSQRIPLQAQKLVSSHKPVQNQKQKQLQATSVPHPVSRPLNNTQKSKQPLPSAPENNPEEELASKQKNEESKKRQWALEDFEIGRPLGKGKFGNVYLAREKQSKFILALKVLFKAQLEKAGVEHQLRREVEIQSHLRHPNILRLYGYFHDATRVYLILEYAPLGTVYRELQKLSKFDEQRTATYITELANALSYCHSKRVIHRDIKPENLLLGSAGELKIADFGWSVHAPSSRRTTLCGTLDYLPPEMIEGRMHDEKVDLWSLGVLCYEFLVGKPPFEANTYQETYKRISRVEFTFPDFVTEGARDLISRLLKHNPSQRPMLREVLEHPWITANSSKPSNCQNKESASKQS
Description: Aurora-A (human) kinase assay (Kemptide substrate). The conditions noted are these: pIC50 is -log(IC50, M); 15 μM ATP; read-out: Kinase Inhibition pIC50 Aurora A kinase (converted). On the procedure: Aurora-A (human) kinase assay. This was achieved by measurement of incorporation of radioactive phosphate from ATP into Kemptide substrate (LRRASLG), upon phosphorylation by commercially obtained aurora-A kinase. Assays were performed using 96-well plates and appropriate assay buffers (8 mM MOPS, 0.2 mM EDTA, pH 7.0), into which were added 5-10 ng of active enzyme with 200 μM substrate (Kemptide). The reactions were initiated by addition of Mg/ATP mix (10 mM MgAcetate+15 μM ATP with 30-50 kBq per well of [γ-^33P]-ATP) and mixtures incubated for 40 min at room temperature. Reactions were stopped by addition of 3% phosphoric acid, followed by filtration through p81 filterplates (Whatman Polyfiltronics, Kent, UK). After washing 5 times with 75 mM aq orthophosphoric acid and once in methanol, plates were dried, scintillant added and incorporated radioactivity measured in a scintillation counter (TopCount, Packard Instruments, Pangbourne, Berks, UK). Compounds for kinase assay were made up as 10 mM stocks in DMSO and diluted into 10% DMSO in assay buffer.

A further test deals with CDK2-cycline E (Homo sapiens, UniProt P24941). Briefly: Kinase assay (radioactive phosphate incorporation), CDK2-cyclin E. The conditions noted are these: read-out: Kinase Inhibition pIC50 CDK2-cycline E (converted). On the procedure:
(§1) Kinase assays. The compounds of the invention above were investigated for their ability to inhibit the enzymatic activity of various protein kinases (Table 2). This was achieved by measurement of incorporation of radioactive phosphate from ATP into appropriate polypeptide substrates. Recombinant protein kinases and kinase complexes were produced or obtained commercially. Assays were performed using 96-well plates and appropriate assay buffers (typically 25 mM β-glycerophosphate, 20 mM MOPS, 5 mM EGTA, 1 mM DTT, 1 mM […], pH 7.4), into which were added 2-4 μg of active enzyme with appropriate substrates. The reactions were initiated by addition of Mg/ATP mix (15 mM MgCl2+100 μM ATP with 30-50 kBq per well of [γ-^32P]-ATP) and mixtures incubated as required at 30° C. Reactions were stopped on ice, followed by filtration through p81 filterplates or GF/C filterplates (Whatman Polyfiltronics, Kent, UK). After washing 3 times with 75 mM aq orthophosphoric acid, plates were dried, scintillant added and incorporated radioactivity measured in a scintillation counter (TopCount, Packard Instruments, Pangbourne, Berks, UK). Compounds for kinase assay were made up as 10 mM stocks in DMSO and diluted into 10% DMSO in assay buffer.

The next test addresses CDK9/cyclin T1 (Homo sapiens, UniProt P50750). Description: CDK 9 assay (CTD peptide substrate). Conditions: read-out: Kinase Inhibition pIC50 CDK9-cyclin T1 (converted). On the procedure: as §1
CDK 7 and 9 assays. CTD peptide substrate (biotinyl-Abx-(Tyr-Ser-Pro-Thr-Ser-Pro-Ser)4-NH2; 1-2 mg/mL) and recombinant human CDK7/cyclin H, CDK9/cyclin T1, or CDK9/cyclin K (0.5-2 μg) were incubated for 45 min at 30° C. in the presence of varying amounts of test compound in 20 mM MOPS pH 7.2, 25 mM β-glycerophosphate, 5 mM EGTA, 1 mM DTT, 1 mM sodium vanadate, 15 mM MgCl2, and 100 μM ATP (containing a trace amount of ^32PγATP) in a total volume of 25 μL in a 96-well microtiter plate. The reaction was stopped by placing the plate on ice for 2 min. Avidin (50 μg) was added to each well, and the plate was incubated at room temp for 30 min. The samples were transferred to a 96-well P81 filter plate, and washed (4×200 μL per well) with 75 mM phosphoric acid. Microscint 40 scintillation liquid (50 μL) was added to each well, and the amount of ^32P incorporation for each sample was measured using a Packard Topcount microplate scintillation counter.

Chain of CDK9/cyclin T1 (P50750 whole entry): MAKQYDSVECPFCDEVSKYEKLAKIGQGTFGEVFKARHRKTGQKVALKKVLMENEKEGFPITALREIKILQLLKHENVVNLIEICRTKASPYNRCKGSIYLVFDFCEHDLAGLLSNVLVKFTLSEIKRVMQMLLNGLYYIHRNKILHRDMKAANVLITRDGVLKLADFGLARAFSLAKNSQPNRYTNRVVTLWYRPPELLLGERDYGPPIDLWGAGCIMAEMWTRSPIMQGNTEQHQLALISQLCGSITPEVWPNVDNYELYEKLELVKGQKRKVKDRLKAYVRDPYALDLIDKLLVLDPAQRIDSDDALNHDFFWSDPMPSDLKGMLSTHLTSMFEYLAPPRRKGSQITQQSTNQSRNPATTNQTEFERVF
Chain of CDK9/cyclin T1 (O60563 whole entry partner): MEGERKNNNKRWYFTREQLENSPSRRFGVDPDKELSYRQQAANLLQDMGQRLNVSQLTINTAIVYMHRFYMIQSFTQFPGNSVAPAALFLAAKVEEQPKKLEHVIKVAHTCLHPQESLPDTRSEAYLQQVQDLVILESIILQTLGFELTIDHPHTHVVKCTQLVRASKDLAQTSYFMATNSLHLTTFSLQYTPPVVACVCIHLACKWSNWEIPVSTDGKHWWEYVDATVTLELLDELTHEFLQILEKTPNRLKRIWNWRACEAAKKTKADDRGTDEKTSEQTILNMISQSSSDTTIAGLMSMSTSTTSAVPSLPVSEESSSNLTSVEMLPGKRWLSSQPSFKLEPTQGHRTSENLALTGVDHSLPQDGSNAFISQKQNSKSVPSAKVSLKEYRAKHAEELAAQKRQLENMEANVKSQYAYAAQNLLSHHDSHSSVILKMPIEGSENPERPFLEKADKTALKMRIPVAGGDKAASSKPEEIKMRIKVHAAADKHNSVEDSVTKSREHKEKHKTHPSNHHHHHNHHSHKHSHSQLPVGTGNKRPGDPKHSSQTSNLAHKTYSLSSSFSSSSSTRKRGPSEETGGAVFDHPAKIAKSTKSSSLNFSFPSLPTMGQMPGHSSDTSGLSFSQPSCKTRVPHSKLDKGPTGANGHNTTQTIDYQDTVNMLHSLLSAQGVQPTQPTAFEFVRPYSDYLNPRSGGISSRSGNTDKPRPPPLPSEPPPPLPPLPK

For `CCN(CC)S(=O)(=O)c1ccc(Nc2nccc(-c3sc(NC)nc3C)n2)cc1` [Compound 52, N,N-Diethyl-4-[4-(4-methyl-2-methylamino-thiazol-5-yl)-pyrimidin-2-ylamino]-benzenesulfonamide], the IC50 was 100 nM on Aurora A kinase and 1000 nM on CDK2-cycline E.
Take `COc1ccc(Nc2nccc(-c3sc(C)nc3C)n2)cc1CN1CCOCC1` [Compound 215, [4-(2,4-Dimethyl-thiazol-5-yl)-pyrimidin-2-yl]-(4-methoxy-3-morpholin-4-ylmethyl-phenyl)-amine]: the IC50 at Aurora A kinase is 200 nM; on CDK2-cycline E it was 1580 nM.
Turning to `Cc1nc(C)c(-c2ccnc(Nc3ccc(N4CCCCC4)cc3)n2)s1` [Compound 193, [4-(2,4-Dimethyl-thiazol-5-yl)-pyrimidin-2-yl]-(4-piperidin-1-yl-phenyl)-amine], the IC50 on Aurora A kinase is 200 nM; on CDK9/cyclin T1, 3980 nM.
As for `CCNc1nc(C)c(-c2ccnc(Nc3ccc(N4CCCCC4)cc3)n2)s1` [Compound 194, [4-(2-Ethylamino-4-methyl-thiazol-5-yl)-pyrimidin-2-yl]-(4-piperidin-1-yl-phenyl)-amine], the IC50 at Aurora A kinase was 79.4 nM; on CDK2-cycline E it was 794 nM.
The corresponding values for `CCNc1nc(C)c(-c2ccnc(Nc3ccc4c(c3)OCCO4)n2)s1` [Compound 181, (2,3-Dihydro-benzo[1,4]dioxin-6-yl)-[4-(2-ethylamino-4-methyl-thiazol-5-yl)-pyrimidin-2-yl]-amine] are 200 nM and 501 nM.
As for `CCNc1nc(C)c(-c2ccnc(Nc3ccc(OC)c(C)c3)n2)s1` [Compound 187, [4-(2-Ethylamino-4-methyl-thiazol-5-yl)-pyrimidin-2-yl]-(4-methoxy-3-methyl-phenyl)-amine], the IC50 at Aurora A kinase was 100 nM; at CDK2-cycline E, 794 nM.
In the case of `COCCNc1nc(C)c(-c2ccnc(Nc3ccc(N4CCOCC4)cc3)n2)s1` [Compound 144, {4-[2-(2-Methoxy-ethylamino)-4-methyl-thiazol-5-yl]-pyrimidin-2-yl}-(4-morpholin-4-yl-phenyl)-amine], the IC50 is 100 nM on Aurora A kinase and 251 nM at CDK2-cycline E.
On to `CCNc1nc(C)c(-c2ccnc(Nc3cccc(Br)c3)n2)s1` [Compound 50, (3-Bromo-phenyl)-[4-(2-ethylamino-4-methyl-thiazol-5-yl)-pyrimidin-2-yl]-amine], for which the values for the IC50 at Aurora A kinase and at CDK9/cyclin T1 were 20 nM and 200 nM, respectively.
Take `CNc1ccc(Nc2nccc(-c3sc(C)nc3C)n2)cc1C(F)(F)F` [Compound 149, N^4-[4-(2,4-Dimethyl-thiazol-5-yl)-pyrimidin-2-yl]-N^1-methyl-2-trifluoromethyl-benzene-1,4-diamine]: the results for the IC50 at Aurora A kinase and on CDK2-cycline E were 398 nM and 251 nM, respectively.
For `Cc1nc(CO)sc1-c1ccnc(Nc2ccc(N(C)C)cc2)n1` [Compound 132, {5-[2-(4-Dimethylamino-phenylamino)-pyrimidin-4-yl]-4-methyl-thiazol-2-yl}-methanol], the IC50 on Aurora A kinase was 100 nM; on CDK2-cycline E, 631 nM.
Regarding `Cc1nc(NC(C)(C)C)sc1-c1ccnc(Nc2ccc(N3CCOCC3)cc2)n1` [Compound 143, [4-(2-tert-Butylamino-4-methyl-thiazol-5-yl)-pyrimidin-2-yl]-(4-morpholin-4-yl-phenyl)-amine], the values for the IC50 on Aurora A kinase and at CDK2-cycline E were 50.1 nM and 126 nM, respectively.
As to `Cc1nc(C)c(-c2ccnc(Nc3ccc(N4CCOCC4)c(Cl)c3)n2)s1` [Compound 141, (3-Chloro-4-morpholin-4-yl-phenyl)-[4-(2,4-dimethyl-thiazol-5-yl)-pyrimidin-2-yl]-amine], the IC50 at Aurora A kinase is 158 nM; at CDK2-cycline E, 794 nM.
`CCNc1nc(C)c(-c2ccnc(Nc3ccc(N4CCN(C)CC4)cc3)n2)s1` [Compound 196, [4-(2-Ethylamino-4-methyl-thiazol-5-yl)-pyrimidin-2-yl]-[4-(4-methyl-piperazin-1-yl)-phenyl]-amine]: the IC50 at Aurora A kinase was 200 nM; at CDK2-cycline E, 631 nM.
Take `COc1cc(Nc2nccc(-c3sc(CO)nc3C)n2)ccc1N1CCOCC1` [Compound 200, {5-[2-(3-Methoxy-4-morpholin-4-yl-phenylamino)-pyrimidin-4-yl]-4-methyl-thiazol-2-yl}-methanol]: the IC50 is 39.8 nM on Aurora A kinase and 2000 nM on CDK2-cycline E.
On to `CNc1nc(C)c(-c2ccnc(Nc3ccc(OC)c(C)c3)n2)s1` [Compound 184, (4-Methoxy-3-methyl-phenyl)-[4-(4-methyl-2-methylamino-thiazol-5-yl)-pyrimidin-2-yl]-amine], for which the values for the IC50 on Aurora A kinase and on CDK2-cycline E were 63.1 nM and 126 nM, respectively.
Take `COCCNS(=O)(=O)c1ccc(Nc2nccc(-c3sc(C)nc3C)n2)cc1` [Compound 43, 4-[4-(2,4-Dimethyl-thiazol-5-yl)-pyrimidin-2-ylamino]-N-(2-methoxy-ethyl)-benzenesulfonamide]: the values for the IC50 at Aurora A kinase and on CDK2-cycline E were 126 nM and 10 nM, respectively.
With `CNc1nc(C)c(-c2ccnc(Nc3ccc(N4CCOCC4)cc3C)n2)s1` [Compound 145, [4-(4-Methyl-2-methylamino-thiazol-5-yl)-pyrimidin-2-yl]-(2-methyl-4-morpholin-4-yl-phenyl)-amine], on Aurora A kinase, the IC50 is 3980 nM.
For the compound `CCNc1nc(C)c(-c2ccnc(Nc3ccc(N4CCOCC4)c(Cl)c3)n2)s1` [Compound 134, (3-Chloro-4-morpholin-4-yl-phenyl)-[4-(2-ethylamino-4-methyl-thiazol-5-yl)-pyrimidin-2-yl]-amine], the figures for the IC50 at Aurora A kinase and at CDK2-cycline E were 126 nM and 200 nM, respectively.
`COc1ccc(Nc2nccc(-c3sc(N)nc3C)n2)cc1C` [Compound 185, [4-(2-Amino-4-methyl-thiazol-5-yl)-pyrimidin-2-yl]-(4-methoxy-3-methyl-phenyl)-amine]: the IC50 at Aurora A kinase is 39.8 nM; on CDK2-cycline E it was 251 nM.
With `Cc1nc(C)c(-c2ccnc(Nc3ccc(C)c(N4CCOCC4)c3)n2)s1` [Compound 214, [4-(2,4-Dimethyl-thiazol-5-yl)-pyrimidin-2-yl]-(4-methyl-3-morpholin-4-yl-phenyl)-amine], at Aurora A kinase, the IC50 was 251 nM.
Regarding `Cc1nc(C)c(-c2ccnc(Nc3ccc(N4CCOCC4)cc3C)n2)s1` [Compound 139, [4-(2,4-Dimethyl-thiazol-5-yl)-pyrimidin-2-yl]-(2-methyl-4-morpholin-4-yl-phenyl)-amine], the IC50 at Aurora A kinase was 1580 nM.
Take `COc1ccc(Nc2nccc(-c3sc(C)nc3C)n2)c(C)c1` [Compound 112, [4-(2,4-Dimethyl-thiazol-5-yl)-pyrimidin-2-yl]-(4-methoxy-2-methyl-phenyl)-amine]: the IC50 at Aurora A kinase was 2510 nM.
Same read-out and setting: in the case of `CCNc1nc(C)c(-c2ccnc(Nc3ccc(OC)cc3C)n2)s1` [Compound 111, [4-(2-Ethylamino-4-methyl-thiazol-5-yl)-pyrimidin-2-yl]-(4-methoxy-2-methyl-phenyl)-amine] it was 3160 nM.
